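Protocol summary: plate cells (96-well), add compound at 5 concentrations, incubate 48 h, interpolate endpoints linearly. GI50 marks 50% less growth. Definition used: TGI = concentration required for complete inhibition of growth.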
Assays:
Assay in all cases: growth of human tumour cells (NCI), 48 h
786-0 renal = system: 786-0 renal
A498 renal = system: A498 renal
A549 NSCLC = system: A549 NSCLC
ACHN renal = system: ACHN renal
BT-549 breast = system: BT-549 breast
CAKI-1 renal = system: CAKI-1 renal
CCRF-CEM leukemia = system: CCRF-CEM leukemia
COLO 205 colon = system: COLO 205 colon
DU-145 prostate = system: DU-145 prostate
EKVX NSCLC = system: EKVX NSCLC
HCC-2998 colon = system: HCC-2998 colon
HCT-116 colon = system: HCT-116 colon
HCT-15 colon = system: HCT-15 colon
HL-60(TB) leukemia = system: HL-60(TB) leukemia
HOP-62 NSCLC = system: HOP-62 NSCLC
HOP-92 NSCLC = system: HOP-92 NSCLC
HS 578T breast = system: HS 578T breast
HT29 colon = system: HT29 colon
IGROV1 ovarian = system: IGROV1 ovarian
K-562 leukemia = system: K-562 leukemia
KM12 colon = system: KM12 colon
LOX IMVI melanoma = system: LOX IMVI melanoma
M14 melanoma = system: M14 melanoma
MALME-3M melanoma = system: MALME-3M melanoma
MCF7 breast = system: MCF7 breast
MDA-MB-231 breast = system: MDA-MB-231 breast
MDA-MB-435 = system: MDA-MB-435
MOLT-4 leukemia = system: MOLT-4 leukemia
NCI-H226 lung = system: NCI-H226 lung
NCI-H23 lung = system: NCI-H23 lung
NCI-H460 lung = system: NCI-H460 lung
NCI-H522 lung = system: NCI-H522 lung
NCI/ADR-RES ovarian = system: NCI/ADR-RES ovarian
OVCAR-3 ovarian = system: OVCAR-3 ovarian
OVCAR-4 ovarian = system: OVCAR-4 ovarian
OVCAR-5 ovarian = system: OVCAR-5 ovarian
OVCAR-8 ovarian = system: OVCAR-8 ovarian
PC-3 prostate = system: PC-3 prostate
RPMI-8226 leukemia = system: RPMI-8226 leukemia
RXF 393 renal = system: RXF 393 renal
SF-268 CNS = system: SF-268 CNS
SF-295 CNS = system: SF-295 CNS
SF-539 CNS = system: SF-539 CNS
SK-MEL-2 melanoma = system: SK-MEL-2 melanoma
SK-MEL-28 melanoma = system: SK-MEL-28 melanoma
SK-MEL-5 melanoma = system: SK-MEL-5 melanoma
SK-OV-3 ovarian = system: SK-OV-3 ovarian
SN12C renal = system: SN12C renal
SNB-19 CNS = system: SNB-19 CNS
SNB-75 CNS = system: SNB-75 CNS
SR leukemia = system: SR leukemia
SW-620 colon = system: SW-620 colon
T-47D breast = system: T-47D breast
TK-10 renal = system: TK-10 renal
U251 CNS = system: U251 CNS
UACC-257 melanoma = system: UACC-257 melanoma
UACC-62 melanoma = system: UACC-62 melanoma
UO-31 renal = system: UO-31 renal

Molecule COc1ccc(-c2nn(C(=O)NCCN(C)C)cc2-c2ccncc2)cc1Cl has a GI50 (786-0 renal) of 7.62 µM, a TGI (786-0 renal) of 51.5 µM and a GI50 (A498 renal) of 2.12 µM. For the same molecule, the TGI (A498 renal) was 5.95 µM, the GI50 (A549 NSCLC) was 5.44 µM and the TGI (A549 NSCLC) was over 100 µM. It also gave a GI50 (ACHN renal) of 3.76 µM, a TGI (ACHN renal) of over 100 µM and a GI50 (BT-549 breast) of 4.51 µM. For the same molecule, the TGI (BT-549 breast) was over 100 µM, the GI50 (CAKI-1 renal) was 3.24 µM and the TGI (CAKI-1 renal) was 24.4 µM. For the same molecule, the GI50 (CCRF-CEM leukemia) was 7.47 µM, the TGI (CCRF-CEM leukemia) was over 100 µM and the GI50 (COLO 205 colon) was 3.5 µM. The TGI (COLO 205 colon) was 13.9 µM, the GI50 (DU-145 prostate) was 6.94 µM and the TGI (DU-145 prostate) was 65.6 µM. The GI50 (EKVX NSCLC) was 2.23 µM, the TGI (EKVX NSCLC) was over 100 µM and the GI50 (HCC-2998 colon) was 10.1 µM. For the same molecule, the TGI (HCC-2998 colon) was 46.4 µM, the GI50 (HCT-116 colon) was 4.6 µM and the TGI (HCT-116 colon) was over 100 µM. It also gave a GI50 (HCT-15 colon) of 3.93 µM, a TGI (HCT-15 colon) of over 100 µM and a GI50 (HL-60(TB) leukemia) of 5.3 µM. It also gave a TGI (HL-60(TB) leukemia) of 57.9 µM, a GI50 (HOP-62 NSCLC) of 2.99 µM and a TGI (HOP-62 NSCLC) of 20.9 µM. For the same molecule, the GI50 (HOP-92 NSCLC) was 1.16 µM, the TGI (HOP-92 NSCLC) was 56.3 µM and the GI50 (HS 578T breast) was 2.79 µM. For the same molecule, the TGI (HS 578T breast) was 9.21 µM, the GI50 (HT29 colon) was 2.17 µM and the TGI (HT29 colon) was 12.6 µM. The GI50 (IGROV1 ovarian) was 8.74 µM, the TGI (IGROV1 ovarian) was over 100 µM and the GI50 (K-562 leukemia) was 5.66 µM. The TGI (K-562 leukemia) was over 100 µM, the GI50 (KM12 colon) was 4.01 µM and the TGI (KM12 colon) was 43.5 µM. The GI50 (LOX IMVI melanoma) was 4.23 µM, the TGI (LOX IMVI melanoma) was 48.9 µM and the GI50 (M14 melanoma) was 5.52 µM. For the same molecule, the TGI (M14 melanoma) was 24.4 µM, the GI50 (MALME-3M melanoma) was 11.8 µM and the TGI (MALME-3M melanoma) was over 100 µM. It also gave a GI50 (MCF7 breast) of 3.57 µM, a TGI (MCF7 breast) of over 100 µM and a GI50 (MDA-MB-231 breast) of 6.34 µM. It also gave a TGI (MDA-MB-231 breast) of over 100 µM, a GI50 (MDA-MB-435) of 1.15 µM and a TGI (MDA-MB-435) of 4.34 µM. The GI50 (MOLT-4 leukemia) was 4.67 µM, the TGI (MOLT-4 leukemia) was over 100 µM and the GI50 (NCI-H226 lung) was 4.11 µM. For the same molecule, the TGI (NCI-H226 lung) was 63.7 µM, the GI50 (NCI-H23 lung) was 6.29 µM and the TGI (NCI-H23 lung) was 60.7 µM. The GI50 (NCI-H460 lung) was 3.83 µM, the TGI (NCI-H460 lung) was 35.4 µM and the GI50 (NCI-H522 lung) was 1.88 µM. The TGI (NCI-H522 lung) was 5.36 µM, the GI50 (NCI/ADR-RES ovarian) was 3.1 µM and the TGI (NCI/ADR-RES ovarian) was over 100 µM. It also gave a GI50 (OVCAR-3 ovarian) of 4.32 µM, a TGI (OVCAR-3 ovarian) of 39.1 µM and a GI50 (OVCAR-4 ovarian) of 7.87 µM. For the same molecule, the TGI (OVCAR-4 ovarian) was over 100 µM, the GI50 (OVCAR-5 ovarian) was 15.1 µM and the TGI (OVCAR-5 ovarian) was over 100 µM. It also gave a GI50 (OVCAR-8 ovarian) of 1.73 µM, a TGI (OVCAR-8 ovarian) of 35.9 µM and a GI50 (PC-3 prostate) of 4.62 µM. For the same molecule, the TGI (PC-3 prostate) was over 100 µM, the GI50 (RPMI-8226 leukemia) was 9.71 µM and the TGI (RPMI-8226 leukemia) was 81.8 µM. The GI50 (RXF 393 renal) was 2.19 µM, the TGI (RXF 393 renal) was 12.8 µM and the GI50 (SF-268 CNS) was 3.68 µM. It also gave a TGI (SF-268 CNS) of 37.2 µM, a GI50 (SF-295 CNS) of 3 µM and a TGI (SF-295 CNS) of 42.6 µM. The GI50 (SF-539 CNS) was 2.28 µM, the TGI (SF-539 CNS) was 13.1 µM and the GI50 (SK-MEL-2 melanoma) was 3.67 µM. The TGI (SK-MEL-2 melanoma) was 9.48 µM, the GI50 (SK-MEL-28 melanoma) was 4.01 µM and the TGI (SK-MEL-28 melanoma) was 38.3 µM. The GI50 (SK-MEL-5 melanoma) was 3.05 µM, the TGI (SK-MEL-5 melanoma) was 11.4 µM and the GI50 (SK-OV-3 ovarian) was 3.12 µM. It also gave a TGI (SK-OV-3 ovarian) of 15.5 µM, a GI50 (SN12C renal) of 5.39 µM and a TGI (SN12C renal) of over 100 µM. For the same molecule, the GI50 (SNB-19 CNS) was 5.15 µM, the TGI (SNB-19 CNS) was over 100 µM and the GI50 (SNB-75 CNS) was 1.68 µM. For the same molecule, the TGI (SNB-75 CNS) was 6.19 µM, the GI50 (SR leukemia) was 6.03 µM and the TGI (SR leukemia) was over 100 µM. It also gave a GI50 (SW-620 colon) of 3.35 µM, a TGI (SW-620 colon) of over 100 µM and a GI50 (T-47D breast) of 11.6 µM. The TGI (T-47D breast) was over 100 µM, the GI50 (TK-10 renal) was 1.86 µM and the TGI (TK-10 renal) was 56.1 µM. It also gave a GI50 (U251 CNS) of 3.71 µM, a TGI (U251 CNS) of over 100 µM and a GI50 (UACC-257 melanoma) of 16.6 µM. The TGI (UACC-257 melanoma) was over 100 µM, the GI50 (UACC-62 melanoma) was 3.07 µM and the TGI (UACC-62 melanoma) was 14.3 µM. It also gave a GI50 (UO-31 renal) of 8.62 µM and a TGI (UO-31 renal) of 53.6 µM.
